Experimental data: patent publication US20250034201A1, “PRODRUGS OF GANAXOLONE” (priority 2022, published 2025)

Assay: Rat liver microsomal stability
Format: in vitro ADME
Settings: rat liver microsomes
Description: (§1) For several compounds only human liver microsomal stability was tested. […] The microsomal assays were carried out with and without the addition of NADPH at a final concentration of 1 mM. For negative control samples, NADPH reagent was not added. […] Note that compounds undergo only Phase I metabolism in liver microsomes.
CLint=the intrinsic hepatic clearance (uL/min/mg), where CLint is equal to 0.693/(t1/2×Cmp)

Row | SMILES | Comments: production of GNX (ganaxolone) in rat liver microsomes
1 | CC(=O)[C@H]1CC[C@H]2[C@@H]3CC[C@H]4C[C@](C)(OC(=O)CNCCO)CC[C@]4(C)[C@H]3CC[C@]12C [Compound 107] | GNX not produced in human or rat
2 | COCCN(C)CC(=O)O[C@]1(C)CC[C@@]2(C)[C@@H](CC[C@@H]3[C@@H]2CC[C@]2(C)[C@@H](C(C)=O)CC[C@@H]32)C1 [Compound 104] | GNX not produced in human or rat

Same assay, conditions: rat liver microsomes 0.5 mg/mL, with NADPH, compound 0.5 μM, 37° C.; read-out: Rat Liver Microsomal Stability t1/2

Row | SMILES | half-life
3 | CC(=O)[C@H]1CC[C@H]2[C@@H]3CC[C@H]4C[C@](C)(OC(=O)CNCCO)CC[C@]4(C)[C@H]3CC[C@]12C [Compound 107] | 21.9 min
4 | COCCN(C)CC(=O)O[C@]1(C)CC[C@@]2(C)[C@@H](CC[C@@H]3[C@@H]2CC[C@]2(C)[C@@H](C(C)=O)CC[C@@H]32)C1 [Compound 104] | 7.41 min

Same assay, conditions: rat liver microsomes 0.5 mg/mL, with NADPH, compound 0.5 μM; read-out: Rat Liver Microsomal Stability CLint (uL/min/mg liver)

Row | SMILES | microsomal CLint
5 | CC(=O)[C@H]1CC[C@H]2[C@@H]3CC[C@H]4C[C@](C)(OC(=O)CNCCO)CC[C@]4(C)[C@H]3CC[C@]12C [Compound 107] | 63 µL/min/mg
6 | COCCN(C)CC(=O)O[C@]1(C)CC[C@@]2(C)[C@@H](CC[C@@H]3[C@@H]2CC[C@]2(C)[C@@H](C(C)=O)CC[C@@H]32)C1 [Compound 104] | 187 µL/min/mg

Same assay, conditions: rat liver microsomes, no NADPH, 1 h, compound 0.5 μM

Row | SMILES | Rat Liver Microsomal Stability no NADPH, % remain 1 h
7 | CC(=O)[C@H]1CC[C@H]2[C@@H]3CC[C@H]4C[C@](C)(OC(=O)CNCCO)CC[C@]4(C)[C@H]3CC[C@]12C [Compound 107] | 98%
8 | COCCN(C)CC(=O)O[C@]1(C)CC[C@@]2(C)[C@@H](CC[C@@H]3[C@@H]2CC[C@]2(C)[C@@H](C(C)=O)CC[C@@H]32)C1 [Compound 104] | 99%

Assay: in vitro
Settings: human plasma, 2 μg/mL, 37° C.
Description: The plasma stability of exemplary compounds was tested using rat, mice, dog, and human plasma, according to the following protocol. For each test compound, samples at a final concentration of 2 μg/mL were prepared in blank plasma of selected species. All samples were incubated at 37° C. on a 150-RPM orbital shaker, and an aliquot was removed at pre-determined time points (0, 15, 30, 60, and 120 minutes). Samples were precipitated with three volumes of acetonitrile containing propranolol as internal standard, and centrifuged for 10 min at 2000 g before LC/MS/MS analysis of the supernatant solutions.

Row | SMILES | Human plasma t90
9 | CC(=O)[C@H]1CC[C@H]2[C@@H]3CC[C@H]4C[C@](C)(OC(=O)COC(=O)OCCN(C)C)CC[C@]4(C)[C@H]3CC[C@]12C [Compound 220] | 3.18 min
10 | CC(=O)[C@H]1CC[C@H]2[C@@H]3CC[C@H]4C[C@](C)(OC(=O)COC(=O)CN5CCN(C)CC5)CC[C@]4(C)[C@H]3CC[C@]12C [Compound 208] | 26.6 min

Same assay, conditions: human, plasma

Row | SMILES | Observations: stability / GNX production in human plasma | half-life
11 | CC(=O)[C@H]1CC[C@H]2[C@@H]3CC[C@H]4C[C@](C)(OC(=O)COC(=O)OCCN(C)C)CC[C@]4(C)[C@H]3CC[C@]12C [Compound 220] | In human no GNX | 21.1 min
12 | CC(=O)[C@H]1CC[C@H]2[C@@H]3CC[C@H]4C[C@](C)(OC(=O)COC(=O)CN5CCN(C)CC5)CC[C@]4(C)[C@H]3CC[C@]12C [Compound 208] | No GNX produced | 177 min

Assay: in vitro
Format: in vitro ADME, human
Settings: human liver microsomes
Description: as §1

Row | SMILES | Comments: production of GNX (ganaxolone) in human liver microsomes
13 | CC(=O)[C@H]1CC[C@H]2[C@@H]3CC[C@H]4C[C@](C)(OC(=O)CNCCO)CC[C@]4(C)[C@H]3CC[C@]12C [Compound 107] | GNX not produced in human or rat
14 | COCCN(C)CC(=O)O[C@]1(C)CC[C@@]2(C)[C@@H](CC[C@@H]3[C@@H]2CC[C@]2(C)[C@@H](C(C)=O)CC[C@@H]32)C1 [Compound 104] | GNX not produced in human or rat
15 | COC(=O)[C@@H](C)NCC(=O)O[C@]1(C)CC[C@@]2(C)[C@@H](CC[C@@H]3[C@@H]2CC[C@]2(C)[C@@H](C(C)=O)CC[C@@H]32)C1 [Compound 106] | GNX not produced in human
16 | CC(=O)[C@H]1CC[C@H]2[C@@H]3CC[C@H]4C[C@](C)(OC(=O)COC(=O)CN5CCN(C)CC5)CC[C@]4(C)[C@H]3CC[C@]12C [Compound 208] | In human GNX not produced
17 | CC(=O)[C@H]1CC[C@H]2[C@@H]3CC[C@H]4C[C@](C)(OC(=O)CNC(=O)CN5CCOCC5)CC[C@]4(C)[C@H]3CC[C@]12C [Compound 112] | In human no GNX produced

Same assay, conditions: human liver microsomes 0.5 mg/mL, with NADPH, compound 0.5 μM, 37° C.; read-out: Human Liver Microsomal Stability t1/2

Row | SMILES | half-life
18 | CC(=O)[C@H]1CC[C@H]2[C@@H]3CC[C@H]4C[C@](C)(OC(=O)COC(=O)OCCN(C)C)CC[C@]4(C)[C@H]3CC[C@]12C [Compound 220] | 11.8 min
19 | COCCN(C)CC(=O)O[C@]1(C)CC[C@@]2(C)[C@@H](CC[C@@H]3[C@@H]2CC[C@]2(C)[C@@H](C(C)=O)CC[C@@H]32)C1 [Compound 104] | 12 min
20 | CC(=O)[C@H]1CC[C@H]2[C@@H]3CC[C@H]4C[C@](C)(OC(=O)COC(=O)CN5CCN(C)CC5)CC[C@]4(C)[C@H]3CC[C@]12C [Compound 208] | 37 min
21 | CC(=O)[C@H]1CC[C@H]2[C@@H]3CC[C@H]4C[C@](C)(OC(=O)CNC(=O)CN5CCOCC5)CC[C@]4(C)[C@H]3CC[C@]12C [Compound 112] | 46.7 min

Same assay, conditions: human liver microsomes 0.5 mg/mL, with NADPH, compound 0.5 μM; read-out: Human Liver Microsomal Stability CLint (uL/min/mg liver) (converted)

Row | SMILES | microsomal CLint
22 | CC(=O)[C@H]1CC[C@H]2[C@@H]3CC[C@H]4C[C@](C)(OC(=O)CNCCO)CC[C@]4(C)[C@H]3CC[C@]12C [Compound 107] | 21.4 µL/min/mg
23 | CC(=O)[C@H]1CC[C@H]2[C@@H]3CC[C@H]4C[C@](C)(OC(=O)COC(=O)OCCN(C)C)CC[C@]4(C)[C@H]3CC[C@]12C [Compound 220] | 117 µL/min/mg
24 | COCCN(C)CC(=O)O[C@]1(C)CC[C@@]2(C)[C@@H](CC[C@@H]3[C@@H]2CC[C@]2(C)[C@@H](C(C)=O)CC[C@@H]32)C1 [Compound 104] | 116 µL/min/mg
25 | CC(=O)[C@H]1CC[C@H]2[C@@H]3CC[C@H]4C[C@](C)(OC(=O)COC(=O)CN5CCN(C)CC5)CC[C@]4(C)[C@H]3CC[C@]12C [Compound 208] | 37.4 µL/min/mg
26 | CC(=O)[C@H]1CC[C@H]2[C@@H]3CC[C@H]4C[C@](C)(OC(=O)CNC(=O)CN5CCOCC5)CC[C@]4(C)[C@H]3CC[C@]12C [Compound 112] | 29.6 µL/min/mg

Same assay, conditions: human liver microsomes, no NADPH, 1 h, compound 0.5 μM

Row | SMILES | Human Liver Microsomal Stability no NADPH, % remain 1 h
27 | CC(=O)[C@H]1CC[C@H]2[C@@H]3CC[C@H]4C[C@](C)(OC(=O)CNCCO)CC[C@]4(C)[C@H]3CC[C@]12C [Compound 107] | 99%
28 | CC(=O)[C@H]1CC[C@H]2[C@@H]3CC[C@H]4C[C@](C)(OC(=O)COC(=O)OCCN(C)C)CC[C@]4(C)[C@H]3CC[C@]12C [Compound 220] | 4%
29 | COCCN(C)CC(=O)O[C@]1(C)CC[C@@]2(C)[C@@H](CC[C@@H]3[C@@H]2CC[C@]2(C)[C@@H](C(C)=O)CC[C@@H]32)C1 [Compound 104] | 98%
30 | CC(=O)[C@H]1CC[C@H]2[C@@H]3CC[C@H]4C[C@](C)(OC(=O)COC(=O)CN5CCN(C)CC5)CC[C@]4(C)[C@H]3CC[C@]12C [Compound 208] | 72%
31 | CC(=O)[C@H]1CC[C@H]2[C@@H]3CC[C@H]4C[C@](C)(OC(=O)CNC(=O)CN5CCOCC5)CC[C@]4(C)[C@H]3CC[C@]12C [Compound 112] | 98.6%

Same assay, conditions: human, microsomes

Row | SMILES | half-life | microsomal CLint
32 | CC(=O)[C@H]1CC[C@H]2[C@@H]3CC[C@H]4C[C@](C)(OC(=O)CNCCO)CC[C@]4(C)[C@H]3CC[C@]12C [Compound 107] | 64.7 min | –
33 | COC(=O)[C@@H](C)NCC(=O)O[C@]1(C)CC[C@@]2(C)[C@@H](CC[C@@H]3[C@@H]2CC[C@]2(C)[C@@H](C(C)=O)CC[C@@H]32)C1 [Compound 106] | 4.57 min | 303 µL/min/mg

Same assay, conditions: human, microsomes, 1 h

Row | SMILES | Human Liver Microsomal Stability no NADPH, % remain 1 h
34 | COC(=O)[C@@H](C)NCC(=O)O[C@]1(C)CC[C@@]2(C)[C@@H](CC[C@@H]3[C@@H]2CC[C@]2(C)[C@@H](C(C)=O)CC[C@@H]32)C1 [Compound 106] | 3.05%

Assay: Stability in simulated gastric fluid (SGF)
Format: in vitro ADME
Settings: simulated gi fluid, 1 h, pH 1.2
Description: The stability of exemplary compounds in simulated gastric fluid (SGF) and simulated intestinal fluid (SIF) was tested according to the following protocol.

Row | SMILES | SGF (% remain, 60 min)
35 | COC(=O)[C@@H](C)NCC(=O)O[C@]1(C)CC[C@@]2(C)[C@@H](CC[C@@H]3[C@@H]2CC[C@]2(C)[C@@H](C(C)=O)CC[C@@H]32)C1 [Compound 106] | 2.80%
